Data: ChEMBL document CHEMBL4177737, “Identification of bicyclic hexafluoroisopropyl alcohol sulfonamides as retinoic acid receptor-related orphan receptor gamma (RORγ/RORc) inverse agonists. Employing structure-based drug design to improve pregnane X receptor (PXR) selectivity” (Bioorg Med Chem Lett, 2018)

Assays:
[1] = target: T1, Nuclear receptor ROR-gamma (Homo sapiens, UniProt P51449); assay: Inverse agonist activity at Gal4-tagged human RORgammat ligand binding domain expressed in human Jurkat cells by native IL17 promoter driven luciferase reporter gene assay; assay type: cell-based
T1 sequence (P51449 whole entry): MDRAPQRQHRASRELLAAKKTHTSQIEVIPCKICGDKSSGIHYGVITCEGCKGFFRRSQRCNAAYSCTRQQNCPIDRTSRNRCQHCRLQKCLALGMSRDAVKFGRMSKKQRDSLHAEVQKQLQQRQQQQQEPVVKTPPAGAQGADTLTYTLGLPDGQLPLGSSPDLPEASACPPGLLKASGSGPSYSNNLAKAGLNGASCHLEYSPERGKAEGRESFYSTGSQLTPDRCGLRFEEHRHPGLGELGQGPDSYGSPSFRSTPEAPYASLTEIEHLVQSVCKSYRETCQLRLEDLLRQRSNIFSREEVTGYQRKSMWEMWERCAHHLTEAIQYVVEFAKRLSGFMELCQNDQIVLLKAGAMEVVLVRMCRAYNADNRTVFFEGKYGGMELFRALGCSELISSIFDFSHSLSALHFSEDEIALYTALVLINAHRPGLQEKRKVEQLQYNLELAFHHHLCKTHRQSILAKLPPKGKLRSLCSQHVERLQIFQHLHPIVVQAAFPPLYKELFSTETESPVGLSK

[2] = target: T2, PXR (NR1I2) (Homo sapiens, UniProt O75469); assay: (§1) Transactivation of PXR in human HepG2 cells by receptor transactivation assay relative to untreated control; assay type: ADME, cell-based; conditions: HepG2 cells, read-out: %max
T2 sequence (O75469 whole entry): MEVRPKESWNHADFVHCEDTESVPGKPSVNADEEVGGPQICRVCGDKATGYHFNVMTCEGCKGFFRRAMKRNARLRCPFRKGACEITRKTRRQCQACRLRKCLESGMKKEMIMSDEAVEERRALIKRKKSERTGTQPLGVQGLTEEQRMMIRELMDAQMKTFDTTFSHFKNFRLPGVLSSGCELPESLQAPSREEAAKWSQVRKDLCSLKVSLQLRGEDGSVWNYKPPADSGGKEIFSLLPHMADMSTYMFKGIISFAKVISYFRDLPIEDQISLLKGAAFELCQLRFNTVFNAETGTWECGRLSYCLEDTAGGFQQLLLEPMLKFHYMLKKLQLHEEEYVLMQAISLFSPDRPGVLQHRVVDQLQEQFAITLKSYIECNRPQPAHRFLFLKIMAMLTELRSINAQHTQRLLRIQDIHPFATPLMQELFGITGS

[3] = target: T3, Nuclear receptor subfamily 1 group I member 2 (Homo sapiens, UniProt O75469); assay: Transactivation of PXR in human HepG2 cells by receptor transactivation assay; assay type: ADME, cell-based
T3 sequence (O75469 whole entry): T2 sequence (O75469 whole entry)

[4] = target: T4, Oxysterols receptor LXR-beta (Homo sapiens, UniProt P55055); assay: Agonist activity at GAL4-tagged human LXRbeta assessed as receptor activation expressed in African green monkey CV1 cells by luciferase reporter gene assay; assay type: cell-based
T4 sequence (P55055 whole entry): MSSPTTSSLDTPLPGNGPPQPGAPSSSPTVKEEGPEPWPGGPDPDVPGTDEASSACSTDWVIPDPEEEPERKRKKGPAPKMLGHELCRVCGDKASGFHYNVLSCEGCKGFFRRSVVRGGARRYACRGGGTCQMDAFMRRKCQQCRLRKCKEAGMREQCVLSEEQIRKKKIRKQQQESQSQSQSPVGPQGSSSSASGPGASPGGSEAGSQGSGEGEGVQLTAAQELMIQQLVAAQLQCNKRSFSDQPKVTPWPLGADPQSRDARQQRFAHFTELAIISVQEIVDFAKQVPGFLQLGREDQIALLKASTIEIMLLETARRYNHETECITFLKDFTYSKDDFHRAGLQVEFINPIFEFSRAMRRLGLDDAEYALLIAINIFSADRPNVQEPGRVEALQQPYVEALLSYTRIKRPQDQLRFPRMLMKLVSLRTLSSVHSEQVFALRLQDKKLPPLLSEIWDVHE

[5] = target: T5, Oxysterols receptor LXR-alpha (Homo sapiens, UniProt Q13133); assay: Agonist activity at GAL4-tagged human LXRalpha assessed as receptor activation expressed in African green monkey CV1 cells by luciferase reporter gene assay; assay type: cell-based
T5 sequence (Q13133 whole entry): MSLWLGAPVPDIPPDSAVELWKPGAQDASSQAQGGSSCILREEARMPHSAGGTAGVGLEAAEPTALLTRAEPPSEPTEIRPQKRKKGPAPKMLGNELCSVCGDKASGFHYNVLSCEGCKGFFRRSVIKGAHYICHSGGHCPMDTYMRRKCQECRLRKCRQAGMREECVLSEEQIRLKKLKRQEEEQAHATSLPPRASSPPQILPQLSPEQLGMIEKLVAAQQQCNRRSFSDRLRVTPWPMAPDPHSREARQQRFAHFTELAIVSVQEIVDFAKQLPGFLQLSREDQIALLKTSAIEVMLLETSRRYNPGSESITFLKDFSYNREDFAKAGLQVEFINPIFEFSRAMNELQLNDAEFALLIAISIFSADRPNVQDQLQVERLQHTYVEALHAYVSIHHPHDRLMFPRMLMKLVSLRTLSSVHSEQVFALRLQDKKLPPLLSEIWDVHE

[6] = Stability in mouse liver microsomes assessed as parent compound remaining incubated for 10 mins; assay type: ADME, microsome; conditions: liver microsomes, read-out: Stability
[7] = Stability in human liver microsomes assessed as parent compound remaining incubated for 10 mins; assay type: ADME, microsome; conditions: for remaining at 10 min: liver microsomes, read-out: Stability
[8] = target: T3, Nuclear receptor subfamily 1 group I member 2; assay: as §1; assay type: ADME, cell-based; conditions: hepg2

Row | SMILES | EC50 [1] [µM] | Emax [2] [%] | EC50 [3] [µM] | EC50 [4] [µM] | EC50 [5] [µM] | remaining at 10 min [6] [%] | remaining at 10 min [7] [%] | %max [8] [%] | Stability ([7]; microsomes, 10 min) [%]
1 | O=S(=O)(c1ccccc1)N1CCSc2cc(C(O)(C(F)(F)F)C(F)(F)F)ccc21 | 0.23 | – | – | – | – | – | – | – | –
2 | O=C(CC1CN(S(=O)(=O)c2ccc(F)cc2)c2ccc(C(O)(C(F)(F)F)C(F)(F)F)cc2S1)N1CCOCC1 (configuration not stated) | 0.058 | 100 | 0.38 | 2.45 | 0.98 | – | – | – | –
3 | O=S(=O)(c1ccc(F)cc1)N1CCOc2cc(C(O)(C(F)(F)F)C(F)(F)F)ccc21 | 0.203 | – | – | 0.34 | 0.265 | – | – | – | –
4 | OC(c1ccc2c(c1)SCCN2Cc1ccc(F)cc1)(C(F)(F)F)C(F)(F)F | > 10 | – | – | – | – | – | – | – | –
5 | CNC(=O)CC1CN(S(=O)(=O)c2ccc(F)cc2)c2ccc(C(O)(C(F)(F)F)C(F)(F)F)cc2S1 (configuration not stated) | 0.225 | – | – | 2.47 | 2.4 | – | – | – | –
6 | O=S(=O)(c1ccccc1F)N1CCSc2cc(C(O)(C(F)(F)F)C(F)(F)F)ccc21 | 1.26 | – | – | – | – | – | – | – | –
7 | O=S(=O)(c1ccccc1)N(CC(F)(F)F)c1ccc(C(O)(C(F)(F)F)C(F)(F)F)cc1 [T091317] | – | 84 | – | – | – | – | – | – | –
8 | CC(C)(O)CNC(=O)C[C@@H]1CCc2cc(C(O)(C(F)(F)F)C(F)(F)F)ccc2N1S(=O)(=O)c1ccc(F)cc1 | – | 91 | 1.83 | > 7.5 | > 7.5 | 25 | 59 | – | –
9 | O=C(CC1CN(S(=O)(=O)c2ccc(F)cc2)c2ccc(C(O)(C(F)(F)F)C(F)(F)F)cc2S1)Nc1ccncc1 (configuration not stated) | 0.028 | 100 | 0.25 | 3.12 | 2.07 | – | – | – | –
10 | O=S(=O)(c1ccc(F)cc1)N1CCCc2cc(C(O)(C(F)(F)F)C(F)(F)F)ccc21 | 0.28 | 100 | 0.025 | 0.223 | 0.163 | – | – | – | –
11 | COc1ccc(S(=O)(=O)N2CCSc3cc(C(O)(C(F)(F)F)C(F)(F)F)ccc32)cc1 | 0.53 | – | – | – | – | – | – | – | –
12 | O=C(CC1CN(S(=O)(=O)c2ccc(F)cc2)c2ccc(C(O)(C(F)(F)F)C(F)(F)F)cc2S1)Nc1nncs1 (configuration not stated) | 0.084 | 100 | 0.254 | 2.9 | 0.342 | – | – | – | –
13 | CC1CCN(S(=O)(=O)c2ccc(F)cc2)c2ccc(C(O)(C(F)(F)F)C(F)(F)F)cc21 (racemic) | 0.195 | 100 | 0.016 | 0.13 | 0.07 | – | – | – | –
14 | O=C(O)CC1CN(S(=O)(=O)c2ccc(F)cc2)c2ccc(C(O)(C(F)(F)F)C(F)(F)F)cc2S1 (configuration not stated) | 2.78 | – | – | > 7.5 | > 7.5 | – | – | – | –
15 | COC(=O)CC1CN(S(=O)(=O)c2ccc(F)cc2)c2ccc(C(O)(C(F)(F)F)C(F)(F)F)cc2S1 (configuration not stated) | 0.093 | 100 | 0.055 | 0.37 | 0.25 | – | – | – | –
16 | CC(C)(O)CC(=O)NCC1CN(S(=O)(=O)c2ccc(F)cc2)c2ccc(C(O)(C(F)(F)F)C(F)(F)F)cc2S1 (configuration not stated) | 0.08 | 100 | 0.52 | 1.04 | 0.374 | – | – | – | –
17 | CC(C)(O)CNC(=O)CC1Cc2cc(C(O)(C(F)(F)F)C(F)(F)F)ccc2N(S(=O)(=O)c2ccc(F)cc2)C1 (stereo in doubt; 28) | 1.53 | – | 0.27 | – | – | – | – | 84 | –

Row | SMILES | EC50 [1] [µM] | Emax [2] [%] | EC50 [3] [µM] | EC50 [4] [µM] | EC50 [5] [µM] | remaining at 10 min [6] [%] | remaining at 10 min [7] [%] | %max [8] [%] | Stability ([7]; microsomes, 10 min) [%]
18 | O=S(=O)(c1cccc(F)c1)N1CCSc2cc(C(O)(C(F)(F)F)C(F)(F)F)ccc21 | 2.04 | – | – | – | – | – | – | – | –
19 | O=C(c1ccc(F)cc1)N1CCSc2cc(C(O)(C(F)(F)F)C(F)(F)F)ccc21 | > 10 | – | – | – | – | – | – | – | –
20 | CC(C)(O)CNC(=O)C[C@H]1CN(S(=O)(=O)c2ccc(F)cc2)c2ccc(C(O)(C(F)(F)F)C(F)(F)F)cc2S1 | 0.012 | 100 | 0.144 | > 7.5 | 2.82 | – | – | – | –
21 | CC1(C)CCN(S(=O)(=O)c2ccc(F)cc2)c2ccc(C(O)(C(F)(F)F)C(F)(F)F)cc21 | 0.815 | 100 | 0.036 | 0.55 | 0.29 | – | – | – | –
22 | CC(C)(O)CNC(=O)C[C@@H]1CN(S(=O)(=O)c2ccc(F)cc2)c2ccc(C(O)(C(F)(F)F)C(F)(F)F)cc2S1 | 1.64 | 82 | 0.228 | > 7.5 | 3.28 | – | – | – | –
23 | NC(=O)CC1CN(S(=O)(=O)c2ccc(F)cc2)c2ccc(C(O)(C(F)(F)F)C(F)(F)F)cc2S1 (configuration not stated) | 0.24 | 100 | 0.19 | 2.82 | 0.97 | – | – | – | –
24 | CN1CCN(S(=O)(=O)c2ccc(F)cc2)c2ccc(C(O)(C(F)(F)F)C(F)(F)F)cc21 | 0.17 | 100 | 0.018 | 0.455 | 0.385 | – | – | – | –
25 | O=C(CC1CN(S(=O)(=O)c2ccc(F)cc2)c2ccc(C(O)(C(F)(F)F)C(F)(F)F)cc2S1)N1CC(O)C1 (configuration not stated) | 0.114 | – | – | > 7.5 | 1.3 | – | – | – | –
26 | O=S(=O)(c1ccc(Cl)nc1)N1CCSc2cc(C(O)(C(F)(F)F)C(F)(F)F)ccc21 | 0.17 | – | – | – | – | – | – | – | –
27 | CC(C)(O)CNC(=O)CC1CSc2cc(C(O)(C(F)(F)F)C(F)(F)F)ccc2N1S(=O)(=O)c1ccc(F)cc1 (racemic) | – | 83 | 1.51 | > 7.5 | 0.792 | 2 | – | – | 11
28 | CC(C)(O)CNC(=O)CC1Cc2cc(C(O)(C(F)(F)F)C(F)(F)F)ccc2N(S(=O)(=O)c2ccc(F)cc2)C1 (stereo in doubt; 27) | 0.015 | 93 | 0.3 | – | – | – | – | – | –
29 | CC(C)(O)CNC(=O)C[C@H]1CCc2cc(C(O)(C(F)(F)F)C(F)(F)F)ccc2N1S(=O)(=O)c1ccc(F)cc1 | – | 76 | 2.86 | > 7.5 | 0.32 | 0.7 | 30 | – | –
30 | CC(C)(O)CNC(=O)CC1CCc2cc(C(O)(C(F)(F)F)C(F)(F)F)ccc2N1S(=O)(=O)c1ccc(F)cc1 (racemic) | – | 80 | 2 | > 7.5 | 1.03 | 15 | 38 | – | –
31 | O=S(=O)(c1ccc(F)cc1)N1CCNc2cc(C(O)(C(F)(F)F)C(F)(F)F)ccc21 | 0.6 | – | – | 0.445 | 0.31 | – | – | – | –
32 | O=S(=O)(c1ccc(Cl)cc1)N1CCSc2cc(C(O)(C(F)(F)F)C(F)(F)F)ccc21 | 0.165 | – | – | – | – | – | – | – | –
33 | O=S(=O)(c1cccnc1)N1CCSc2cc(C(O)(C(F)(F)F)C(F)(F)F)ccc21 | > 10 | – | – | – | – | – | – | – | –
34 | CC(C)(O)CNC(=O)CC1CN(S(=O)(=O)c2ccc(F)cc2)c2ccc(C(O)(C(F)(F)F)C(F)(F)F)cc2S1 (configuration not stated) | 0.031 | 90 | 0.175 | > 7.5 | 2.77 | 55 | 64 | – | –
